In one data set the test system is Enterococcus faecalis. As to the kind of experiment: Antimicrobial activity against Enterococcus faecalis OG1RF assessed as inhibition of microbial growth. The class given is functional.
Another data set has as its system Escherichia coli. As to the kind of experiment: Antimicrobial activity against Escherichia coli MC4100 assessed as inhibition of microbial growth. The class given is functional.
A further data set relates to Pseudomonas aeruginosa. As to the kind of experiment: Antimicrobial activity against Pseudomonas aeruginosa PAO1 assessed as inhibition of microbial growth. The class given is functional.
For data set [1], the system named is Staphylococcus aureus. The experiment in a line: microbe, parasite or virus in culture. The class given is functional. The note with it: ATCC 33591.
Description: Antimicrobial activity against hospital acquired methicillin-resistant Staphylococcus aureus ATCC 33591 assessed as inhibition of microbial growth
Data set [2] deals with Staphylococcus aureus. The experiment in a line: Antimicrobial activity against methicillin-susceptible Staphylococcus aureus SH1000 assessed as inhibition of microbial growth. The class given is functional.
The next data set concerns Erythrocyte. The experiment in a line: Hemolytic activity against human RBC assessed as concentration required to cause >20% hemolysis. The class given is ADME, cell-based.
The test system of data set [3] is Staphylococcus aureus. The experiment in a line: Antimicrobial activity against community acquired methicillin-resistant Staphylococcus aureus USA300 assessed as inhibition of microbial growth. The class given is functional.

Consider 23 compounds from ChEMBL document CHEMBL4706678, “Trivalent sulfonium compounds (TSCs): Tetrahydrothiophene-based amphiphiles exhibit similar antimicrobial activity to analogous ammonium-based amphiphiles” (Bioorg Med Chem Lett, 2021).

Molecules are shown by their SMILES. Bounds are passed on as bounds.

With `C[N+]1(CCCCCCCCCCCC[N+]2(C)CCCC2)CCCC1.[Br-].[Br-]`, the MIC in the data set on Enterococcus faecalis, in the data set with Escherichia coli, in the data set with Pseudomonas aeruginosa, against Staphylococcus aureus [1], in the data set on Staphylococcus aureus [2] and with Staphylococcus aureus [3] was over 250 µM throughout. Also, in the data set with Erythrocyte, the HC20 amounted to 125 µM.

For `CCCCCCCCCCCCCCCC[n+]1ccccc1.[Cl-]`, in the data set on Erythrocyte, the HC20 worked out at 8 µM.

As to `CCCCCCCCCCCC[S+]1CCCC1.[I-]`, the MIC was over 250 µM in the data set with Enterococcus faecalis; over 250 µM with Escherichia coli; over 250 µM with Pseudomonas aeruginosa; 125 µM with Staphylococcus aureus [1]; 16 µM with Staphylococcus aureus [2]; 16 µM in the data set on Staphylococcus aureus [3]. Moreover, in the data set with Erythrocyte, the HC20 stood at 125 µM.

Take `CCCCCCCCCCCCC[S+]1CCCC1.[I-]`: the MIC was over 250 µM in the data set on Enterococcus faecalis; over 250 µM in the data set with Escherichia coli; over 250 µM in the data set with Pseudomonas aeruginosa; 125 µM against Staphylococcus aureus [1]; 8 µM with Staphylococcus aureus [2]; 32 µM with Staphylococcus aureus [3]. Moreover, the HC20 in the data set with Erythrocyte was determined as 63 µM.

Turning to `CCCCCCCC[N+]1(C)CCCC1.[Br-]`, the MIC in the data set on Enterococcus faecalis, in the data set with Escherichia coli, in the data set with Pseudomonas aeruginosa, in the data set with Staphylococcus aureus [1], in the data set on Staphylococcus aureus [2] and with Staphylococcus aureus [3] was over 250 µM throughout. For the same compound, the HC20 with Erythrocyte amounted to 125 µM.

Regarding `CCCCCCCCCCCCCC[N+]1(C)CCCC1.[Br-]`, the MIC in the data set on Enterococcus faecalis is over 250 µM; in the data set with Escherichia coli, 250 µM; in the data set on Pseudomonas aeruginosa, over 250 µM; against Staphylococcus aureus [1] it was 16 µM; in the data set on Staphylococcus aureus [2], 4 µM; in the data set on Staphylococcus aureus [3], 8 µM. In addition, the HC20 in the data set on Erythrocyte stood at 32 µM.

For `CCCCCCCCCCCCCCCC[S+]1CCCC1.[I-]`, the MIC is over 250 µM in the data set on Enterococcus faecalis; 125 µM in the data set on Escherichia coli; over 250 µM in the data set on Pseudomonas aeruginosa; 8 µM in the data set on Staphylococcus aureus [1]; 2 µM with Staphylococcus aureus [2]; 4 µM in the data set on Staphylococcus aureus [3]. Moreover, in the data set on Erythrocyte, the HC20 came to 16 µM.

As to `CCCCCCCCCCCC[N+]1(C)CCCC1.[Br-]`, the MIC with Enterococcus faecalis is over 250 µM; in the data set with Escherichia coli, over 250 µM; with Pseudomonas aeruginosa, over 250 µM; against Staphylococcus aureus [1], 125 µM; with Staphylococcus aureus [2], 32 µM; with Staphylococcus aureus [3], 32 µM. Also, the HC20 in the data set with Erythrocyte came out at 125 µM.

Take `CCCCCCCCCCCCCCCCCC[S+]1CCCC1.[I-]`: the MIC is over 250 µM in the data set on Enterococcus faecalis; 63 µM in the data set with Escherichia coli; 250 µM with Pseudomonas aeruginosa; 8 µM with Staphylococcus aureus [1]; 1 µM in the data set on Staphylococcus aureus [2]; 4 µM in the data set on Staphylococcus aureus [3]. Besides, the HC20 in the data set on Erythrocyte came to 16 µM.

With `CCCCCCCCCCCCCC[S+]1CCCC1.[I-]`, the MIC in the data set on Enterococcus faecalis was over 250 µM; in the data set on Escherichia coli it was 250 µM; in the data set with Pseudomonas aeruginosa it was over 250 µM; with Staphylococcus aureus [1], 32 µM; in the data set with Staphylococcus aureus [2], 4 µM; with Staphylococcus aureus [3] it was 4 µM. Further, in the data set with Erythrocyte, the HC20 stood at 16 µM.

In the case of `C[N+]1(CCCCCCCC[N+]2(C)CCCC2)CCCC1.[Br-].[Br-]`, the MIC in the data set with Enterococcus faecalis, in the data set on Escherichia coli, with Pseudomonas aeruginosa, in the data set with Staphylococcus aureus [1], in the data set on Staphylococcus aureus [2] and with Staphylococcus aureus [3] was over 250 µM in each case. Moreover, the HC20 with Erythrocyte amounted to 125 µM.

Consider `C[N+]1(CCCCCCCCCC[N+]2(C)CCCC2)CCCC1.[Br-].[Br-]`, for which the MIC in the data set with Enterococcus faecalis, in the data set on Escherichia coli, in the data set on Pseudomonas aeruginosa, in the data set with Staphylococcus aureus [1], with Staphylococcus aureus [2] and in the data set with Staphylococcus aureus [3] was over 250 µM each time. The HC20 in the data set on Erythrocyte worked out at 125 µM.

`CCCCCCCCCCC[S+]1CCCC1.[I-]`: the MIC in the data set on Enterococcus faecalis is over 250 µM; with Escherichia coli, over 250 µM; in the data set with Pseudomonas aeruginosa, over 250 µM; in the data set with Staphylococcus aureus [1], 250 µM; in the data set with Staphylococcus aureus [2], 125 µM; in the data set with Staphylococcus aureus [3] it was 250 µM. Further, the HC20 in the data set on Erythrocyte was 125 µM.

Regarding `C(CCCCCC[S+]1CCCC1)CCCCC[S+]1CCCC1.[I-].[I-]`, the MIC in the data set on Enterococcus faecalis is over 250 µM; with Escherichia coli, over 250 µM; in the data set with Pseudomonas aeruginosa it was over 250 µM; against Staphylococcus aureus [1], over 250 µM; with Staphylococcus aureus [2] it was 250 µM; in the data set with Staphylococcus aureus [3] it was 250 µM. For the same compound, the HC20 in the data set with Erythrocyte came to 250 µM.

As to `CCCCCCCCCC[N+]1(C)CCCC1.[Br-]`, the MIC in the data set with Enterococcus faecalis, with Escherichia coli, in the data set with Pseudomonas aeruginosa, against Staphylococcus aureus [1], in the data set on Staphylococcus aureus [2] and with Staphylococcus aureus [3] was over 250 µM throughout. Besides, the HC20 in the data set on Erythrocyte came out at 250 µM.

Take `CCCCCCCCCCCCCCCC[N+]1(C)CCCC1.[Br-]`: the MIC is over 250 µM in the data set on Enterococcus faecalis; 125 µM in the data set on Escherichia coli; over 250 µM with Pseudomonas aeruginosa; 8 µM against Staphylococcus aureus [1]; 4 µM in the data set with Staphylococcus aureus [2]; 2 µM in the data set on Staphylococcus aureus [3]. Also, the HC20 in the data set with Erythrocyte was found to be 16 µM.

Consider `CCCCCCCC[S+]1CCCC1.[I-]`, for which the MIC with Enterococcus faecalis, in the data set on Escherichia coli, with Pseudomonas aeruginosa, against Staphylococcus aureus [1], with Staphylococcus aureus [2] and in the data set on Staphylococcus aureus [3] was over 250 µM throughout. The HC20 in the data set with Erythrocyte was 125 µM.

Turning to `CCCCCCCCCCCCCCCCCC[N+]1(C)CCCC1.[Br-]`, the MIC is over 250 µM with Enterococcus faecalis; 63 µM in the data set on Escherichia coli; 250 µM in the data set on Pseudomonas aeruginosa; 8 µM in the data set on Staphylococcus aureus [1]; 2 µM in the data set with Staphylococcus aureus [2]; 4 µM in the data set on Staphylococcus aureus [3]. In addition, the HC20 with Erythrocyte is 16 µM.

Turning to `C(CCCCC[S+]1CCCC1)CCCC[S+]1CCCC1.[I-].[I-]`, the MIC in the data set with Enterococcus faecalis is over 250 µM; with Escherichia coli, over 250 µM; in the data set on Pseudomonas aeruginosa it was over 250 µM; against Staphylococcus aureus [1] it was over 250 µM; in the data set on Staphylococcus aureus [2], 250 µM; in the data set on Staphylococcus aureus [3] it was 250 µM. Besides, the HC20 with Erythrocyte came out at 125 µM.

`CCCCCCCCCCCCC[N+]1(C)CCCC1.[Br-]`: the MIC in the data set on Enterococcus faecalis was over 250 µM; in the data set on Escherichia coli, over 250 µM; with Pseudomonas aeruginosa, over 250 µM; in the data set on Staphylococcus aureus [1] it was 63 µM; with Staphylococcus aureus [2], 8 µM; with Staphylococcus aureus [3], 16 µM. For the same compound, the HC20 in the data set on Erythrocyte turned out to be 63 µM.

`C(CCCC[S+]1CCCC1)CCC[S+]1CCCC1.[I-].[I-]`: the MIC with Enterococcus faecalis, in the data set on Escherichia coli, in the data set on Pseudomonas aeruginosa, against Staphylococcus aureus [1], with Staphylococcus aureus [2] and with Staphylococcus aureus [3] was over 250 µM in each case. The HC20 in the data set on Erythrocyte was 125 µM.

For `CCCCCCCCCC[S+]1CCCC1.[I-]`, the MIC was over 250 µM in the data set with Enterococcus faecalis; over 250 µM in the data set on Escherichia coli; over 250 µM in the data set with Pseudomonas aeruginosa; over 250 µM in the data set with Staphylococcus aureus [1]; 250 µM in the data set with Staphylococcus aureus [2]; 250 µM in the data set on Staphylococcus aureus [3]. The HC20 in the data set on Erythrocyte worked out at 125 µM.

In the case of `CCCCCCCCCCC[N+]1(C)CCCC1.[Br-]`, the MIC with Enterococcus faecalis was over 250 µM; in the data set with Escherichia coli it was over 250 µM; with Pseudomonas aeruginosa, over 250 µM; against Staphylococcus aureus [1], over 250 µM; in the data set with Staphylococcus aureus [2], 125 µM; in the data set with Staphylococcus aureus [3], 125 µM. In the data set on Erythrocyte, the HC20 turned out to be 125 µM.
